Results on three molecules are retold here after patent US11492361B2, “Compounds useful in HIV therapy” (GlaxoSmithKline Intellectual Property Development Limited, priority 2018, dated 2022).

Molecules are shown by their SMILES. Read-outs that look alike come from different tables or passages of the source.

The target of test [1] is Jurkat HIV-luciferase clones. Nature of the test: Jurkat latency reversal assay. It counts as cell-based. The conditions noted are these: Table 4 summary, read-out: Jurkat EC50. The essentials: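 Three pooled Jurkat HIV-luciferase clones (C16, I15, N6; 5,000 cells/well, maintained with 500 nM EFV) exposed to 3-fold, 14-point titrations (10 μM to 2.1 pM, 0.5% DMSO) in duplicate for 48 h at 37 °C. Luciferase luminescence read; EC50 and maximal % activation versus vehicle from four-parameter logistic fit.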

The subject of test [2] is NFKB2. The test can be described thus: NFkB2 gene induction. The format is cell-based, human. The conditions noted are these: normal donor CD4 T cells, 24h, read-out: NFkB2 gene induction EC50. On the procedure:
5×10^5 normal donor CD4 T cells were treated for 24h with serial dilutions of compounds starting at 1.0 μM at 6 fold, 7 places. Total RNA was isolated using the RNEasy Mini kit (Qiagen) per the manufacturer's instructions. The following TaqMan primer probe sets were sourced from Applied Biosystems: Hs00174517_m1 (NFKB2) and Hs02800695 (HPRT1). TaqMan-based real-time PCR (Fast Virus 1-Step Master Mix, Applied Biosystems) was used to amplify host genes of interest. Gene expression was normalized to HPRT1 and comparative threshold cycle (CT) method (ΔΔCT) was used for relative fold change of gene expression as compared to untreated cells. The data was analyzed by QuantStudio3 Real-Time PCR System.

In test [3] the test system is cell-associated HIV RNA (HIV gag RNA) in CD4+ T cells. The conditions noted are these: background statement, primary cells / resting CD4+ T cells; cited from earlier work.
Test [4] relates to Jurkat HIV-luciferase clones. Conditions: background statement; cited from earlier work.
For test [5], the system named is p100/p52. Conditions: background statement, primary cells; cited from earlier work.

`CN[C@H](C)C(=O)N[C@@H](C(=O)N1CCC[C@@H]1C(=O)N[C@@H]1c2ccccc2C[C@@H]1OCC#CC#CCO[C@@H]1Cc2ccccc2[C@H]1NC(=O)[C@H]1CCCN1C(=O)[C@H](NC(=O)[C@@H](C)NC)C1CCCCC1)C1CCCCC1` [AZD5582, reference compound]: the 50% effective concentration (EC50) worked out at 8 nM in test [1] and 28 nM in test [2]. The “HIV caRNA induction” value in test [3] is “increase in cell-associated HIV RNA expression”.

Turning to `CC[C@H](NC(=O)[C@H](C)NC)C(=O)N1C[C@@H](O)C[C@H]1Cc1c(-c2[nH]c3cc(F)ccc3c2C[C@@H]2C[C@H](O)CN2C(=O)[C@H](CC)NC(=O)[C@H](C)NC)[nH]c2cc(F)ccc12` [Birinapant, reference compound], the concentration giving a half-maximal response (EC50) in test [1] (Homo sapiens, Jurkat, 48 h) was 200 nM; in test [2] (Homo sapiens), above 1000 nM.

`CN[C@H](C)C(=O)N[C@@H]1CCS[C@@H]2CC(C)(C)C(C(=O)N[C@@H]3CCCc4ccccc43)N2C1=O` (stereo partly shown) [SBI-0637142]: the EC50 in test [1] came out at 1 nM; in test [2], 18000 nM. The “potency in cell line assays / Jurkat (HIV latency reversal)” value in test [4] is given as “potent”. In addition, the p100-p52 conversion result in test [5] was “did not exhibit activity”. Also, in test [3], the “HIV caRNA induction” value is reported as “did not exhibit activity”.

As a reminder, the EC50 is the midpoint of the concentration-response curve.
